# Laboratory results as given in patent publication US12161642B2, “Ferrochelatase inhibitors and methods of use” (INDIANA UNIVERSITY RESEARCH AND TECHNOLOGY CORPORATION, priority 2018, dated 2024).
# pIC50: −log10 of the molar value. Read-outs that look alike come from different tables or passages of the source.
# Experiments:
# [1] = system: FECH in HRECs; experiment: PPIX accumulation assay in HRECs; format: cell-based, human; details: after 5-ALA treatment; vs. DMSO control
# Experimental: To confirm that ferrochelatase is inhibited in HRECs after treatment with compounds, the buildup of FECH's substrate PPIX was assayed fluorometrically. HRECs were plated for 80% confluency at the time of treatment in 6 cm dishes coated with attachment factor. Cells were then treated with compound in DMSO (1% DMSO final concentration) for 2 hours at 37° C. 5-Aminolevulinic acid, the first dedicated precursor in the heme synthesis pathway, was then added to the cells at 1 mM and allowed to incubate at 37° C. for another 2 hours. Cells were washed with PBS and flash frozen. Cells were lysed in 200 μL RIPA buffer and cleared by centrifugation at 14,000 g for 15 minutes at 4° C. The cleared lysates (20 μL) were added to wells of a 384 well plate in triplicate. An equal volume of 2M HC104 prepared in methanol was added to each well and PPIX was detected by immediately reading fluorescence on a Biotek Synergy H1 plate reader at 406 nm excitation and 610 nm emission. Total PPIX accumulation was determined by comparing fluorescence output with PPIX standards, prepared in DMSO and diluted in RIPA buffer and 2M HC104 (1:1 ratio) and read on the same plate. Protein in the cleared lysates was quantified with a standard Bradford assay and the amount of PPIX accumulation is expressed per mg protein.
# [2] = target: recombinant human FECH (Homo sapiens (Human), UniProt P22830); experiment: FECH enzymatic activity assay (Ni2+ mesoporphyrin IX formation, absorbance at 550 nm); format: biochemical
# Chain of recombinant human FECH (P22830 55-423): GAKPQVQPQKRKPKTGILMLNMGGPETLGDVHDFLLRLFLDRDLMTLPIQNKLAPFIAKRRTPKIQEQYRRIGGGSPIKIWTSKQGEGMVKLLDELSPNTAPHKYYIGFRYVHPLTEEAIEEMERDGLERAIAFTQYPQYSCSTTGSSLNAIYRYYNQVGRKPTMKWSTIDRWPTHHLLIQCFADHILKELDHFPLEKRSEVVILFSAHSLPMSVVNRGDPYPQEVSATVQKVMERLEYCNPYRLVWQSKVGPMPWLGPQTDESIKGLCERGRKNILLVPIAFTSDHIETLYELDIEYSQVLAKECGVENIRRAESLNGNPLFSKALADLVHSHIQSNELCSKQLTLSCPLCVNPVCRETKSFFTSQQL
# Experimental: The human FECH expression plasmid pHDTF20 was obtained in E. coli cells from the Dailey Lab (University of Georgia). The cells were grown in Circlegrow medium (MP Biomedicals, LLC #3000-122) with ampicillin for 20 hours. Cells were harvested, lysed in a Tris-MOPS buffer and purified by immobilized metal affinity chromatography using HisPur Cobalt resin (Thermo Fisher #89965).
# The activity assay buffer was 100 mM Tris-HCl pH 8.0 with 0.05% octyl glucoside detergent. Assay reagents included 100 μM NiCl (Sigma #339350), 0.75 μM FECH enzyme and 100 μM mesoporphyrin (Sigma #258806) prepared in ammonium hydroxide (Santa Cruz #sc-214535).
# The kinetic assay was optimized for a 384-well format. For the 384-well assay, each well contained a 50 μL reaction with 40 μL buffer, 5 μL mesoporphyrin solution, 5 μL NiCl and FECH solution. […] This time point was used for the chemical screen.
# A mixture of assay buffer, NiCl and FECH enzyme (15 μL) was added to all wells on the assay plate using a MulitFlo dispenser. To start the reaction, 15 μL of a 333 μM mesoporphyrin solution in assay buffer was added to the plate, the plate spun down and the absorbance at OD=550 nm immediately read to establish a read at time 0. Plates were read for absorbance at OD=550 nm again at t=20 minutes and the activity was expressed as the change in the absorbance over the 20 minute reaction.
# Compounds, reordered from ChemDiv or synthesized as described above, were made to 10 mM in DMSO and tested in the FECH enzymatic assay at final concentrations of […] 100 μM (1% final DMSO concentration). IC50 values for the compounds were determined using GraphPad Prism software.
# A kinetic assay to monitor FECH enzymatic activity was adapted from a published protocol (Burden et a., Biochim Biophys Acta 1435, 191-197 (1999)).
# [3] = system: HRECs; experiment: Matrigel-based tube formation assay; format: cell-based, human; details: 8 hours, total tubule length vs. DMSO control
# Experimental: The Matrigel-based tube formation assay was performed. Briefly, 50 μL Matrigel was allowed to solidify in a 96-well black, clear bottom plate at 37° C. for 20 minutes. HRECs were added to the solid Matrigel at 15,000 cells/well in 100 μL EGM-2 and dosed with appropriate concentrations of compound in DMSO, 1 μL/well. Tube formation was observed every 2 hours by brightfield microscopy and images were taken after 8 hours of tube formation. Six images per treatment were analyzed using the AngiogenesisAnalyzer plugin for ImageJ and HREC total tubule length for treated cells was normalized to DMSO controls. Statistical analysis was completed using GraphPad Prism, with ANOVA followed by Dunnett's post hoc tests used to compare treatments to control (DMSO).
# [4] = system: HRECs; experiment: HREC proliferation assay (alamarBlue), GI50 determination; format: cell-based, human; details: Homo sapiens, HREC, 44 h, proliferation of HRECs
# Experimental: Human retinal microvascular endothelial cells (HRECs) were cultured in EGM-2 medium (Lonza). Cells (2500/well) in EGM-2 medium were plated in 48 wells in the center of a 96-well black with clear bottom TC treated plate are allowed to attach overnight. The cells were treated with compounds such that final assay concentrations were 100 μM, 30 μM, 10 μM, 3 μM, 1 μM, 100 nM, and 10 nM with DMSO control (1% final DMSO concentration). Cells were allowed to proliferate for 44 hours prior to addition of alamarBlue. The alamarBlue reagent is a flurorometric/colorimetric redox reagent that is reduced in the presence of growing cells. The assay was completed with a read of fluorescence at excitation of 560 nm and emission of 590 nm. GI50 values were determined using GraphPad Prism software.
# [5] = recombinant FECH, read-out: FECH IC50
Compound,buildup of PPIX in HRECs [1],FECH activity inhibition ([2]; 10 μM),"pIC50 ([2]; positive control, in our assay, read-out: IC50 (FECH inhibition))",tube formation of HRECs [3],GI50 [4] [µM],"pIC50 [2, 5]"
"N-methylprotoporphyrin [NMPP, reference compound]",induced a buildup of PPIX,completely inhibited,6.35,,,
"CCCc1cc(=O)n2nc(CNc3ccc(C)cc3)nc2[nH]1 [Example 5c, 5-propyl-2-((p-tolylamino)methyl)-[1,2,4]triazolo[1,5-a]pyrimidin-7(4H)-one]",,,,blocked tube formation,28.3,6.53
"CCCc1cc(=O)n2nc(CNc3ccccc3C)nc2[nH]1 [Example 5a, 5-propyl-2-((o-tolylamino)methyl)-[1,2,4]triazolo[1,5-a]pyrimidin-7(4H)-one]",,,,blocked tube formation,75.5,4.04
"CCCc1cc(=O)n2nc(CNc3ccc(C(C)(C)C)cc3)nc2[nH]1 [Example 5h, 2-(((4-(tert-butyl)phenyl)amino)methyl)-5-propyl-[1,2,4]triazolo[1,5-a]pyrimidin-7(4H)-one]",,,,blocked tube formation,3.8,< 4.00
"CC(C)(C)c1ccc(-c2nc3[nH]c(CNc4cccc(Cl)c4)cc(=O)n3n2)cc1 [Example 4h, 2-(4-(tert-butyl)phenyl)-5-(((3-chlorophenyl)amino)methyl)-[1,2,4]triazolo[1,5-a]pyrimidin-7(4H)-one]",,,,blocked tube formation,> 100,
"CC(C)(C)c1ccc(-c2nc3[nH]c(CNc4ccc5ccccc5n4)cc(=O)n3n2)cc1 [Example 4e, 2-(4-(tert-butyl)phenyl)-5-((quinolin-2-ylamino)methyl)-[1,2,4]triazolo[1,5-a]pyrimidin-7(4H)-one]",induced a buildup of PPIX,,,blocked tube formation,92.5,6.75
"CCCc1cc(=O)n2nc(CNc3ccccc3Cl)nc2[nH]1 [Example 5d, 2-(((2-chlorophenyl)amino)methyl)-5-propyl-[1,2,4]triazolo[1,5-a]pyrimidin-7(4H)-one]",,,,blocked tube formation,25.7,< 4.00
"CC(C)(C)c1ccc(-c2nc3[nH]c(CNCCc4ccccc4)cc(=O)n3n2)cc1 [Example 4c, 2-(4-(tert-butyl)phenyl)-5-((phenethylamino)methyl)-[1,2,4]triazolo[1,5-a]pyrimidin-7(4H)-one]",,,,,> 100,< 4.00
"Cc1cccc(NCc2nc3[nH]c4c(c(=O)n3n2)CCC4)c1 [Example 5p, 2-((m-tolylamino)methyl)-4,5,6,7-tetrahydro-8H-cyclopenta[d][1,2,4]triazolo[1,5-a]pyrimidin-8-one]",,,,,> 100,5.03
CCCc1cc(=O)n2nc(CNc3ccc(C)c(Cl)c3)nc2[nH]1 [Example D433-1748],,,,,> 100,6.24
"Cc1cccc(NCc2nc3[nH]c(C)cc(=O)n3n2)c1 [Example 5v, 5-methyl-2-((m-tolylamino)methyl)-[1,2,4]triazolo[1,5-a]pyrimidin-7(4H)-one]",,,,,> 100,4.73
Cc1cccc(C)c1NCc1cc(=O)n2nc(-c3ccc(C(C)(C)C)cc3)nc2[nH]1 [Example D351-0312],,,,,> 100,5.86
"CCCCCOc1ccc(NCc2nc3[nH]c(CCC)cc(=O)n3n2)cc1 [Example 5l, 2-(((4-(pentyloxy)phenyl)amino)methyl)-5-propyl-[1,2,4]triazolo[1,5-a]pyrimidin-7(4H)-one]",,,,,> 100,4.11
CCOC(=O)CCc1c(C)[nH]c2nc(CNc3ccc(C)c(Cl)c3)nn2c1=O [Example D433-1688],,,,,> 100,5.52
"Cc1ccc(NCc2nc3[nH]c(C(C)C)cc(=O)n3n2)cc1 [Example 5t, 5-isopropyl-2-((p-tolylamino)methyl)-[1,2,4]triazolo[1,5-a]pyrimidin-7(4H)-one]",,,,,> 100,4.77
CCc1ccccc1NCc1nc2[nH]c(C)c(Cc3ccc(Cl)cc3)c(=O)n2n1 [Example D433-1585],,,,,74.6,5.90
